# Experimental data reported in patent US20030186869A1, “Polymer compositions comprising antifibrotic agents, and methods of treatment, pharmaceutical compositions, and methods of preparation therefor” (priority 1990, published 2003).
# Read-outs that look alike come from different tables or passages of the source.
# How the values were obtained:
# [1] = test system: RFL-6 cells; test: IC50 experiment, cytotoxicity / growth inhibition of RFL-6 rat fibroblast cells; assay type: cell-based; conditions: for factor by which cytotoxicity as PEG construct is reduced compared to the free amino acid: RFL-6 cells; for IC50: mean ± SD (n)
# Method: In this test two different synthesis batches of cis-hydroxyproline (CHOP) linked to PEG were tested, along with free CHOP. […] The differences between the two batches of CHOP-PEG are not significant.
# [2] = test system: rats exposed to hypoxia (10% O2); test: cHyp (free or in liposomes) in rats developing hypoxic pulmonary hypertension; assay type: in vivo, rat; conditions: for Hct / RVP / RV/(LV + S) / Protein: Hypoxia, day 3; for Protein: pulmonary artery
# From the text: Six week old male Sprague Dawley rats (Crl:CD[SD]BR) weighing 185-205 g and 8 week old female Swiss mice (Crl:CP-1[ICR]BR) weighing 30-32 g (Charles River Breading Laboratories, Wilmington, Mass.) were maintained in a holding area one week prior to study and were fed food and water ad libitum. Rats were randomly allocated to hypoxia or air groups; mice breathed air. Animals were kept in a 12-hour light-dark cycle.
# Four rats were placed in a polycarbonate chamber measuring 51×41×22 cm, and humidified gas (10% O2, 90% N2 flowed into the chamber at a rate of 400 ml/min. Gas samples were analyzed electrometrically (model MB53-MK2, Radiometer, Copenhagen, Denmark); PO2 ranged from 74-80 mmHg and PCO2 from 3-5 mmHg. Air-breathing rats were kept in cages in the same room and were pair-fed to hypoxic animals by weighing the food consumed by hypoxic animals and feeding the same amount of food to air-breathing animals to ensure similar final body weights. The chambers were opened once daily for 10 min. to clean, weigh and feed the animals.
# A catheter was placed in the right ventricle of anesthetized rats (50 mg/kg pentobarbital intraperitoneally), and mean right ventricular pressure was measured using a pressure transducer (model P23Db, Statham, Instruments, Oxnard, Calif.) and recorded (model SP-2006, Statham Instruments). Pressure was measured after the animal had breathed air for 20 min. to eliminate the tonic response to hypoxia. After sacrifice by abdominal aorta transection, hematocrit and ratio of ventricular weights were measured, and the position of the catheter was confirmed at autopsy.
# Main pulmonary artery (9 mm in length) was excised and analyzed for total protein and hydroxyproline contents as previously described. Tissue was hydrolyzed in 6N HCl at 118° C. for 48 hrs., diluted 1:10 in water, and a 0.1 ml aliquot was assayed for total protein by the ninhydrin method using leucine as standard and for hydroxyproline by a calorimetric method. Results of triplicate measurements were expressed as content per vessel.
# Cis-4-hydroxy-L-proline dissolved in saline (free cHyp) or saline alone were injected subcutaneously (0.5 ml) or intravenously. Intravenous injections were performed in anesthetized animals (25 mg/kg thiopental, intraperitoneally). In rats, liposomes containing cHyp or empty liposomes were injected intravenously (18 μmol phospholipid in […]) via the dorsal vein of the penis over 5 sec using a 30 gauge needle. In mice, liposomes (18 μmol phospholipid in 0.5 ml) were injected into the tail vein.
# Four modes of delivery of cHyp were used in rats. Free cHyp (200 or 100 mg/kg) was injected subcutaneously twice daily during exposure to hypoxia. A single dose of free cHyp (200 mg/kg) was given intravenously prior to exposure to hypoxia. Single doses of cHyp entrapped in liposomes (200 or 100 mg/kg) were injected intravenously prior to exposure to hypoxia. Multiple doses of cHyp in liposomes (200 mg/kg) were injected intravenously prior to hypoxia and every 5 days during exposure to hypoxia. Single doses of cHyp entrapped in liposomes after reticuloendothelial blockage were produced by intravenous injection of a single dose of empty liposomes followed 30 minutes later by a single intravenous dose of cHyp entrapped in liposomes (100 or 50 mg/kg) prior to exposure to hypoxia. The purpose was to enhance the localization of liposomes containing cHyp to the lungs by prior treatment with empty liposomes as temporary reticuloendothelial blocking agents.
# In each animal, we assessed the effect of injection of cHyp on five parameters of exposure to hypoxia: mean right ventricular pressure (RVP) measured after the animal had been removed from the hypoxic environment, ratio of ventricular weights (RV/[LV+S]), hematocrit, and the contents of hydroxyproline and protein in the pulmonary artery. For each experimental group, comparisons were made to a group exposed to hypoxia and injected with a control substance and to a group exposed to air. […]
# [3] = test system: air-breathing rats; test: cHyp in air-breathing rats, parameters of exposure to hypoxia; assay type: in vivo, rat; conditions: for Hct / RV/(LV + S) / RVP / Protein: Air, day 3; for Protein: pulmonary artery
# From the text: In each animal, we assessed the effect of injection of cHyp on five parameters of exposure to hypoxia: mean right ventricular pressure (RVP) measured after the animal had been removed from the hypoxic environment, ratio of ventricular weights (RV/[LV+S]), hematocrit, and the contents of hydroxyproline and protein in the pulmonary artery. For each experimental group, comparisons were made to a group exposed to hypoxia and injected with a control substance and to a group exposed to air. For free cHyp, the control substance was saline; for cHyp entrapped in liposomes, the control substance was empty liposomes. Groups were age-matched; the air group was weight-matched to the hypoxic group injected with the control substance. Average results of each parameter were compared.
# The sixth protocol studied whether cHyp injected in air breathing rats affected any of the parameters of exposure to hypoxia. Air groups were given free cHyp 200 or 100 mg/kg subcutaneously twice daily for 3 days (Groups 13 and 14) and were compared to saline injected animals. A group was injected with 200 mg/kg of cHyp in liposomes every 5 days during a 21-day exposure to air (Group 15), and results were compared to a group injected with empty liposomes every 5 days during a 21-day exposure to air.
# [4] = test system: Smooth muscle cells; test: Smooth muscle cell proliferation, cells counted daily; assay type: cell-based; conditions: six day period, compared to free cHyp and tHyp
# From the text: As can be noted with respect to FIGS. 6-9, the antifibrotic agents can be conjugated with PEG or another polymer and used to reduce cellular proliferation in the presence of collagen metabolism. In FIG. 6, the effect of free cHyp, polymeric cHyp and free trans-hydroxyproline were compared over a six day period. Smooth muscle cells were allowed to proliferate in the presence of free cHyp, polymeric cHyp and trans-hydroxyproline. The polymeric cHyp was produced as described above and contained ester linkages. On each day, the cells were trypsinized and counted with a hemocytometer. […] This is further supported by the data illustrated in FIG. 9, generated with fibroblast cells. […] See, e.g., FIG. 7, which presents a comparison of activity between the ester linked polymer and the amide linked polymer in FIG. 8.
# [5] = Hydrolytic stability of dual-labeled conjugate in pH buffers (GPC, scintillation counting); assay type: physicochemical; conditions: six day period
# Method: Buffers at various pH levels were prepared according to the method described in Davies, The Analyst, 1959, 4:248-251, with final ionic strengths of approximately 0.15 mol./L. Incubation samples were prepared by dissolving the dual-labeled conjugate in the appropriate medium to obtain a 50 mg/mL concentration and immediately syringe filtering through 0.45 μm nylon filters. Aliquots (25-30 μL) at specified time points were removed for GPC analysis-fractionation. Release rates were determined by monitoring cleavage of the radiolabeled [^3H]-cHyp from the radiolabeled [^14C] polymeric backbone. Separation of the relatively high molecular weight backbone from the low molecular weight drug was readily achieved via gel permeation chromatography, which is a size separation technique, followed by scintillation counting of the collected fractions. This necessitated using radiolabeled-conjugate concentrations of 50 mg/mL, i.e., 1 mg of conjugate injected per run, resulting in appropriate molecular weight analysis and specific activity determinations for the collected fractions. […]
# The polymeric conjugate consists of two distinctly different parts: (a) the polymeric backbone [poly(PEG-Lys)]; and (b) the pendent chain which consists of the drug molecule and its linking bond (cHyp). […] The hydrolytic stability of the polymeric conjugate was monitored over a six day period. The stability of the bonds present in the polymeric conjugate (ether, amide and urethane) was evaluated by incubation of the dual-labeled polymeric conjugate at the specified pH. Aliquot removal at specified time intervals, followed by GPC analysis with fractionation, permitted the quantitative monitoring of both carrier stability (molecular weight profile) and drug release (determination of [^3H]/[^14C] ratio by scintillation counting), as is shown in FIG. 12. In the pH range from 0 to 12, no change in either molecular weight, polydispersity or the [^3H] to [^14C] ratio could be detected throughout the test period.
# [6] = Serum release study in fetal calf serum; assay type: in vitro ADME, bovine; conditions: six day incubation in FCS at 37° C.
# Method: Buffers at various pH levels were prepared according to the method described in Davies, The Analyst, 1959, 4:248-251, with final ionic strengths of approximately 0.15 mol./L. Incubation samples were prepared by dissolving the dual-labeled conjugate in the appropriate medium to obtain a 50 mg/mL concentration and immediately syringe filtering through 0.45 μm nylon filters. Aliquots (25-30 μL) at specified time points were removed for GPC analysis-fractionation. Release rates were determined by monitoring cleavage of the radiolabeled [^3H]-cHyp from the radiolabeled [^14C] polymeric backbone. Separation of the relatively high molecular weight backbone from the low molecular weight drug was readily achieved via gel permeation chromatography, which is a size separation technique, followed by scintillation counting of the collected fractions. This necessitated using radiolabeled-conjugate concentrations of 50 mg/mL, i.e., 1 mg of conjugate injected per run, resulting in appropriate molecular weight analysis and specific activity determinations for the collected fractions. The serum release studies were conducted in 100% heat inactivated fetal calf serum (ΔFCS) at 37° C. at a concentration of 50 mg/mL of conjugate to ΔFCS, over a six day period.
# [7] = Rattus norvegicus, RFL-6, free amino acid, read-out: IC50, Free AA
# [8] = 100 mg/kg subcutaneously for 3 days
molecule,measurement,setting,value
"O=C(O)C1C=CCN1 (racemic) [DHP, 3,4-dehydro-DL-proline]",factor by which cytotoxicity as PEG construct is reduced compared to the free amino acid,[1],8 ×
same,IC50,[1]; [7],0.7 ± 0.3 mM
"NCCCC[C@H](N)C(=O)N1C[C@@H](O)C[C@H]1C(=O)O (relative stereo) [CHOP-Lys, L-lysine-cis-4-hydroxy-L-proline dipeptide]",IC50,"[1]; lysyl dipeptide, read-out: IC50, AA-Lys",7 mM
"O=C(O)[C@@H]1C[C@H](O)CN1 (stereo in doubt) [cHyp, cis-4-hydroxy-L-proline]",IC50,[1]; [7],8.8 ± 5.1 mM
same,hematocrit,[2]; [8],partial decrease
same,"increased RVP, RV/(LV+S) or hydroxyproline or protein contents",[2]; [8],did not prevent
same,pulmonary hypertension,[2]; 200 mg/kg subcutaneously twice daily for 3 days,partially prevented
same,Hct,[2]; 100 mg/kg sq bid × 3 days,51 ± 1 %
same,RVP,[2]; 100 mg/kg sq bid × 3 days,14 ± 1 mmHg
same,Hct,[2]; 200 mg/kg iv × 1 injection,55 ± 1 %
same,RV/(LV + S),[2]; 200 mg/kg iv × 1 injection,0.32 ± 0.01 %
same,RVP,[2]; 200 mg/kg iv × 1 injection,14 ± 1 mmHg
same,Hct,[2]; 200 mg/kg sq bid × 3 days,51 ± 1 %
same,RV/(LV + S),[2]; 200 mg/kg sq bid × 3 days,0.25 ± 0.01 %
same,RVP,[2]; 200 mg/kg sq bid × 3 days,10 ± 1 mmHg
same,minimal total dose required to prevent hypoxic pulmonary hypertension,"[2]; at 5 days, subcutaneous (200 mg/kg twice daily)",2000 mg/kg
same,effect on any parameter,[2]; injected intravenously prior to hypoxic exposure,no effect
same,Protein,[2]; 100 mg/kg sq bid × 3 days,2.3 ± 0.3 mg/vessel
same,Protein,[2]; 200 mg/kg iv × 1 injection,2.3 ± 0.3 mg/vessel
same,Protein,[2]; 200 mg/kg sq bid × 3 days,1.4 ± 0.1 mg/vessel
same,Hct,[3]; 100 mg/kg sq bid × 3 days,47 ± 1%
same,RV/(LV + S),[3]; 100 mg/kg sq bid × 3 days,0.25 ± 0.01%
same,RVP,[3]; 100 mg/kg sq bid × 3 days,9 ± 1 mmHg
same,Hct,[3]; 200 mg/kg sq bid × 3 days,46 ± 1%
same,RV/(LV + S),[3]; 200 mg/kg sq bid × 3 days,0.24 ± 0.01%
same,RVP,[3]; 200 mg/kg sq bid × 3 days,9 ± 1 mmHg
same,effect on any of the measured parameters,"[3]; air, 200 mg/kg or 100 mg/kg twice daily subcutaneously for 3 days",no effect
same,Protein,[3]; 100 mg/kg sq bid × 3 days,1.2 ± 0.1 mg/vessel
same,Protein,[3]; 200 mg/kg sq bid × 3 days,1.2 ± 0.1 mg/vessel
"O=C(O)[C@@H]1CCN1 [ACA, (S)-(−)-2-azetidinecarboxylic acid]",factor by which cytotoxicity as PEG construct is reduced compared to the free amino acid,[1],4 ×
same,IC50,[1]; [7],1.7 ± 1.8 mM
"O=C(O)[C@@H]1CSCN1 [THP, (R)-(−)-2-thiazolidine-4-carboxylic acid]",factor by which cytotoxicity as PEG construct is reduced compared to the free amino acid,[1],12 ×
same,IC50,[1]; [7],0.7 ± 0.1 mM
Poly(PEG-Lys-cis-Hyp) Copolymer [amide linked polymer],Cellular proliferation,[4],further reduced
Poly(PEG-Lys-cis-Hyp) Copolymer [polymeric cHyp],Cellular proliferation,[4],significantly reduced
poly(PEG-[^14C]Lys-[^3H]cHyp) [dual-labeled polymeric conjugate],change in [3H]/[14C] ratios (amide stability),"[5]; pH 14, 25° C.",relatively no change
same,polymer backbone stability,"[5]; pH 14, 25° C.",Massive backbone degradation
same,"change in molecular weight, polydispersity or [3H] to [14C] ratio","[5]; pH range from 0 to 12, 25° C.",no change
same,cleavage of [3H]cHyp from the carrier,[6],did not occur to any appreciable extent
same,polymer backbone stability,[6],completely maintained
